Like-named read-outs stand apart in the source and are kept apart here. Values belong to the compound of their own block, whether it stands above or below them.
Assays:
[1] = Pharmacokinetics of model antibiotics in mice: tail vein injection vs subcutaneous administration combined with recombinant human HAase; details: for AUC(0-t): AUClast
Source text: (§2) The difference in pharmacokinetics between subcutaneous administration of antibiotics combined with recombinant human HAase and traditional intravenous administration of antibiotics in mice was studied. Ceftriaxone, Ceftazidime, Ertapenem, and Teicoplanin were used as model antibiotics. A total of 48 ICR male mice were used in each antibiotic model, and divided into two groups, each having 24 mice. The two groups include a tail vein injection group, and a subcutaneous administration group of antibiotics combined with recombinant human HAase. The single dose was 100-200 mg/kg, and the drugs was respectively formulated and administered according to the scheme for each group. Blood samples were taken 5 min, 15 min, 30 min, 45 min, 1 hr, 2 hrs, 4 hrs and 8 hrs after administration. The concentration of each model antibiotic in the sample was detected by LC-MS and the pharmacokinetic parameters were calculated.

[2] = Compatibility study of HAase and antibiotic in solution: appearance of the solution; type: physicochemical; details: 8 solutions of antibiotic (two concentrations) with HAase 150-6000 units/ml in physiological saline
Protocol: (§1) The compatibility of HAase and an antibiotic was studied by preparing a solution comprising the two substances. A dry Meropenem power for injection was dissolved in physiological saline to give a concentration of 5 mg/ml and 50 mg/ml, and then HAase was added to give a final concentration of 150, 500, 2000, and 6000 units/ml respectively. After preparation, the solution was left to stand at room temperature for 15 min. The appearance of the solution was observed, and the concentration of HAase was determined.
as §1, with “dry Ceftriaxone sodium” for “dry Meropenem”, “of 50” for “of 5”, “and 250” for “and 50”
as §1, with “dry Azithromycin” for “dry Meropenem”, “of 10” for “of 5”, “and 100” for “and 50”
as §1, with “dry Cefradine powder” for “dry Meropenem power”, “of 50” for “of 5”, “and 250” for “and 50”
as §1, with “dry Teicoplanin powder” for “dry Meropenem power”, “of 10” for “of 5”, “and 70” for “and 50”
as §1, with “dry Ceftazidime powder” for “dry Meropenem power”, “of 20” for “of 5”, “and 200” for “and 50”
as §1, with “dry Ertapenem” for “dry Meropenem”, “of 30” for “of 5”, “and 300” for “and 50”
The compatibility of HAase and an antibiotic was studied by preparing a solution comprising the two substances. A dry Polymyxin B powder for injection was dissolved in physiological saline to give a concentration of 50,000 units/ml and 250,000 units/ml, and then HAase was added to give a final concentration of 150, 500, 2000, and 6000 units/ml respectively.

[3] = in vivo; details: male, ICR, mouse
Source text: as §2

[4] = male, ICR, mouse, in vivo, sc
Source text: as §2

[5] = target: T1, HAase (Homo sapiens, UniProt P38567); assay: Compatibility study of HAase and antibiotic in solution: HAase activity; type: biochemical; details: 15 min room temperature
T1 construct: made in house
T1 sequence (P38567 36-482): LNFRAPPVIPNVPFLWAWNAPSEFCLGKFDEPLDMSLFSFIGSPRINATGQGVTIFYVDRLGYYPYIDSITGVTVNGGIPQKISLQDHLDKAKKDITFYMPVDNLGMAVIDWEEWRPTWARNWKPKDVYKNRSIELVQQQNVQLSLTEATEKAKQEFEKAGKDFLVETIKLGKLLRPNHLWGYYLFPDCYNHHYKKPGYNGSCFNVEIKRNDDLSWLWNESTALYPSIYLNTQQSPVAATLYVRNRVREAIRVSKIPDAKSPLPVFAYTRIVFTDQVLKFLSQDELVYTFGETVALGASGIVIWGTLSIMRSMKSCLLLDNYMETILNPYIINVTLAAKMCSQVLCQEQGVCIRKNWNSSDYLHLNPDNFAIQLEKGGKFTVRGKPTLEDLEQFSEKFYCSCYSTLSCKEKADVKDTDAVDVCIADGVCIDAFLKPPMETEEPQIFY

[6] = ICR male mice, administration by injection via tail vein, single dose 100-200 mg/kg
[7] = ICR male mice, conventional subcutaneous administration, single dose 100-200 mg/kg
[8] = ICR male mice, in combination with recombinant human HAase for subcutaneous administration, single dose 100-200 mg/kg

AUClast [1, 6]: 195 µg·h/mL
Cmax [1, 6]: 148 µg/mL
Tmax [1, 6]: 5 min
AUClast [1, 7]: 201 µg·h/mL
Cmax [1, 7]: 121 µg/mL
Tmax [1, 7]: 15 min
AUClast [1, 8]: 210 µg·h/mL
Cmax [1, 8]: 133 µg/mL
Tmax [1, 8]: 15 min
appearance of the solution [2]: clear and transparent
Compound: Teicoplanin

appearance of the solution [2]: clear and transparent
Tmax ([3]; iv): 5 min
Tmax ([3]; sc): 15 min
Compound: CC(C)(O/N=C(\C(=O)N[C@@H]1C(=O)N2C(C(=O)[O-])=C(C[n+]3ccccc3)CS[C@H]12)c1csc(N)n1)C(=O)O [Ceftazidime]

Tmax [4]: 15 min
appearance of the solution [2]: clear and transparent
Tmax ([3]; iv): 5 min
Compound: CO/N=C(\C(=O)N[C@@H]1C(=O)N2C(C(=O)O)=C(CSc3nc(=O)c(=O)[nH]n3C)CS[C@H]12)c1csc(N)n1 [Ceftriaxone]

Continued, compound first:

Compound: CC1=C(C(=O)O)N2C(=O)[C@@H](NC(=O)[C@H](N)C3=CCC=CC3)[C@H]2SC1 [Cefradine]
appearance of the solution [2]: clear and transparent

Compound: C[C@@H](O)[C@H]1C(=O)N2C(C(=O)O)=C(S[C@@H]3CN[C@H](C(=O)Nc4cccc(C(=O)O)c4)C3)[C@H](C)[C@H]12 [Ertapenem]
Tmax [1, 8]: 15 min
Tmax ([1]; male, ICR, mouse, blood, iv): 5 min
AUC(0-t) ([1]; male, ICR, mouse, blood, iv, ICR male mice, administration by injection via tail vein, single dose 100-200 mg/kg): 450 µg·h/mL
Cmax ([1]; male, ICR, mouse, blood, iv, Cmax, ICR male mice, administration by injection via tail vein, single dose 100-200 mg/kg): 368 µg/mL
Tmax ([1]; male, ICR, mouse, blood, sc): 15 min
AUC(0-t) ([1]; male, ICR, mouse, blood, sc, ICR male mice, conventional subcutaneous administration, single dose 100-200 mg/kg): 442 µg·h/mL
AUC(0-t) ([1]; male, ICR, mouse, blood, sc, ICR male mice, in combination with recombinant human HAase for subcutaneous administration, single dose 100-200 mg/kg): 459 µg·h/mL
Cmax ([1]; male, ICR, mouse, blood, sc, Cmax, ICR male mice, conventional subcutaneous administration, single dose 100-200 mg/kg): 318 µg/mL
Cmax ([1]; male, ICR, mouse, blood, sc, Cmax, ICR male mice, in combination with recombinant human HAase for subcutaneous administration, single dose 100-200 mg/kg): 333 µg/mL
appearance of the solution [2]: clear and transparent
Final concentration of HAase (units/ml) 2000 ([5]; antibiotic 30 mg/ml in physiological saline, HAase added to 2000 units/ml): 2016 units/ml
Final concentration of HAase (units/ml) 150 ([5]; antibiotic 300 mg/ml in physiological saline, HAase added to 150 units/ml): 156 units/ml

From patent publication US20250099557A1, “ANTIBIOTIC PHARMACEUTICAL COMPOSITION CAPABLE OF SUBCUTANEOUS ADMINISTRATION” (SHANGHAI BAO PHARMACEUTICALS CO., LTD., priority 2021, published 2025)
